Data from patent US8241903B2, “Catecholamine receptor modulation” (Yeda Research and Development Co., Ltd., priority 2006, dated 2012).

Legend:
cord blood CD34+ cells [1] = assay: Polarization of CB CD34+ cells upon adhesion to hyaluronic acid; format: cell-based, human; conditions: CB CD34+ cells on HA-coated cover slips, 2 hours at 37° C.
Experimental: Enriched CB CD34^+ cells (1×10^5 to 2×10^5 cells per well) were plated on HA-coated cover slips for 2 hours at 37° C., either untreated or treated with SKF or 7-OH-DPAT. Samples were processed for microscopic observation as described (Goichberg et al., 2001). In brief, the adherent cells were fixed with 3% paraformaldehyde (Merck, Darmstadt, Germany) and, if indicated, permeabilized in 0.5% Triton X-100 (Sigma-Aldrich). Samples were indirectly immunolabeled at room temperature in a humidified chamber with using purified polyclonal rabbit anti human Dopamine D5 antibodies (Calbiochem, Nottingham, UK) (MCAP89; Serotec). The secondary antibodies used were Goat anti rabbit Alexa 488 conjugated (Molecular Probes, Eugene Oreg.). Phalloidin—TRITC used to detect polymerized actin, was purchased from Sigma-Aldrich. Following labeling, cells were mounted in Elvanol (Mowiol 4-88, Hoechst, Frankfurt, Germany). Immunofluorescence images were acquired using scientific-grade CCD camera and processed by the Delta Vision system using Resolve 3D software (Applied Precision, Issaquah, Wash.).
We assessed changes in morphology of cord blood CD34^+ cells upon adhesion to hyaluronic in the presence or the absence of the dopamine agonists SFK or 7-OH-DPAT.

cord blood CD34+ cells [2] = assay: Progenitor colony forming assay (CFU) in semi solid cultures; format: cell-based, human; conditions: for colony (CFU-C) formation in the presence of GM-CSF: IL-3 plus GM-CSF 5 ng/ml, scored day 14; for colony (CFU-C) formation in the presence of GM-CSF / colony formation, culture not supplemented with myeloid cytokines: SKF 1 μM or 7-OH-DPAT 100 nM; for colony formation, culture not supplemented with myeloid cytokines: no GM-CSF or G-CSF; for clonogenic capacity of human cord blood CD34+ cells: epinephrine 10 nM, norepinephrine 1 and 10 nM added to the methyl cellulose
Experimental: (vii) Progenitor colony forming assay (CFU). In order to detect the levels of human progenitors, semisolid cultures were carried out as previously described (Peled et al. 1999). In brief, CD34^+ cells (1×10^3 cells/ml) were plated in 0.9% methylcellulose (Sigma), 30% FCS, 5×10^−5M 2ME, 50 ng/ml SCF, 5 ng/ml IL-3, 5 ng/ml GM-CSF (R&D), and 2 u/ml Erythropoietin (Orto Bio Tech, Don Mills, Canada) together with the dopamine agonists/antagonist. In some experiments the cells were pre-incubated for 4 days with the agonists/antagonist prior to plating in the semisolid culture. The cultures were incubated at 37° C. in a humidified atmosphere containing 5% CO2 and scored 14 days later for myeloid or erythroid colonies by morphologic criteria. In experiments where the level of in vivo engraftment by primitive human cells was determined, the semisolid media contained 15% human plasma and 15% FCS.
GM-CSF and G-CSF are known for their role in myeloid differentiation and in stem cell regulation. It is common practice to add these cytokines to progenitor colony forming assay (CFU) in order to facilitate detection of human progenitors. […] We therefore tested whether up regulation of dopamine receptor levels affects progenitor development in vitro. For this purpose cord blood CD34^+ cells were seeded in semi solid cultures (1×10^3 cells/ml in 1 ml) supplemented with the cytokines Epo (2 u/ml; Orto Bio Tech, Don Mills, Canada.), SCF (50 ng/ml; R&D) and IL-3 (5 ng/ml R&D) and with GM-CSF (5 ng/ml; R&D) or G-CSF (100 ng/ml; Roche) in order to up regulate dopamine receptor levels. To evaluate the effect of increased dopamine receptor activity, the semi solid cultures were supplemented with dopamine agonist SKF (1 μM) or 7-OH-DPAT (100 nM) or with medium as a control.
Next, the effect of the adrenergic neurotransmitters epinephrine (10 nM) and norepinephrine (1 and 10 nM) on proliferation of human CD34+ cells was assessed. The experimental conditions were similar to those conducted with the dopamine agonists. For colony assay, epinephrine and norepinephrine were added to the methyl cellulose. […] For engraftment assay, cells were incubated for 2 days in RPMI supplemented with GM-CSF 5 ng/ml.

[3] = tested on: murine bone marrow mononuclear cells; assay: Spontaneous migration of bone marrow mononuclear cells from treated mice; format: in vivo; conditions: cells from mice treated with G-CSF plus agonist compared to G-CSF alone
human CD34+ cells [4] = assay: Engraftment of ex-vivo treated human CD34+ cells in bone marrow of irradiated NOD/SCID mice; conditions: for engraftment in the murine BM compared to control cells: MPB CD34+ cells incubated 2-4 days with 1 μM SKF or 100 ng/ml 7-OH-DPAT before injection, human CD45 in BM 5 weeks post injection; for engraftment of human CD34+ cells in NOD/SCID mice: cord blood CD34+ cells incubated 2 days with GM-CSF 5 ng/ml with or without the neurotransmitter prior to injection
Experimental: (ii) Mice. […] Eight-ten week old mice were sublethally irradiated (375 cGy, from a 60 Co source) and transplanted with human cells as indicated (2×10^5 cells/mouse) 24 hours post irradiation.
(iii) Cell transplantation. Cells were injected into the tail vein of NOD/SCID in 0.5 ml of RPMI supplemented with 10% FCS.
(iv) Assessment of cell engraftment. Recipient mice were irradiated with a sublethal (350 cGy) dose from a Cesium source 24 hours prior to injection of cells. MPB or CB CD34^+ cells (2-3×10^5/mouse) were treated with SKF or 7-OH-DPAT for 2-4 days and injected i.v. into NOD/SCID mice. Mice were sacrificed 5-6 weeks post transplantation of human cells for assessing human cell engraftment assessment. BM (femur, tibia and pelvis bones flushed with a syringe), spleen, and peripheral blood cells were harvested and resuspended into single cell suspensions. WBCs were counted and in some experiments MNCs were isolated from samples by standard separation on Ficol-Hypaque (Pharmacia Biotech). Human cell engraftment was assayed by flow cytometry (FACSCalibur, BD). Cells were triple-stained with CD45-FITC, CD38-PE and CD34-APC (Becton Dickinson) antibodies. Human plasma and mouse IgG were used to block Fc receptors. Human leukocytes were gated according to their expression of the pan-leukocyte marker CD45, and amongst this population the percentage of CD34^+/CD38^−/low primitive cells was determined.
To assess the effect of dopamine receptor on engraftment of stem cells, mobilized peripheral blood (MPB) enriched human CD34^+ cells treated ex-vivo with the dopamine agonists SKF or 7-OH-DPAT were transplanted in NOD/SCID mice and engraftment of human cell in the murine BM was determined. Briefly, 1-3×10^5 MPB CD34^+ cells were incubated for 2-4 days at 37° C. in RPMI supplemented with 10% FCS, penicillin streptomycin and L-Glutamine and treated with the dopamine receptor agonists (1 μM) SKF or (100 ng/ml) 7-OH-DPAT or were left untreated. After the incubation, the cells were injected in irradiated NOD/SCID mice. The mice were sacrificed 5 weeks post injection, BM was extracted and the BM cells were labeled for the human CD45 marker.
The experimental conditions were similar to those conducted with the dopamine agonists. […] For engraftment assay, cells were incubated for 2 days in RPMI supplemented with GM-CSF 5 ng/ml.

BM cells = assay: Bone marrow cellularity (WBC) after 5 daily i.p. injections in mice; format: in vivo; conditions: WBC on day 5, 4 hrs after last injection
Experimental: For this purpose, mice were injected with 5 daily i.p injections of the dopamine agonist 7-OH-DPAT (1.5 mg/kg) or antagonist flupenthixol 5 (3 mg/kg) or remained untreated and the bone marrow cell mass was determined. On day 5, 4 hrs after last injection, mice were sacrificed, BM cells were flushed from BM (with a syringe), and White Blood Count (WBC) was determined.

human CD34+ cells [5] = tested on: human CD34+ cells
Experimental: (viii) Chemotaxis assays. Chemotaxis experiments were assayed using transwells (6.5 mm diameter, 5 μm pore; Corning Inc., Corning, N.Y.) as previously described (1). […] Migrating cells were counted using FACSCalibur (Becton Dickinson).
We tested the effect of dopamine (1 nM-1 uM) on in vitro migration potential of immature human CD34^+ cells (50,000-100,000 cells in 100 ul). […] Since dopamine is highly oxidative, its agonists were used, particularly in treatments requiring longer incubation periods (FIG. 6D).

[6] = tested on: dopamine receptors 3 and 5 in CD34+/CD38-/low cells; assay: In vitro 3-day incubation with GM-CSF, dopamine receptor staining; format: cell-based, human; conditions: 3-day incubation with GM-CSF 5 ng/ml; MPB, normal BM or cord blood cells
Experimental: (§1) (vi) Flow cytometry analysis. Phenotypes of human and murine cells were examined by immunostaining, followed by flow cytometry analysis on FACSCalibur (Becton Dickinson, San Jose, Calif.) with CellQuest software. Single cell suspension were prepared in PBS containing 0.01% sodium azide and 1% FCS. Human plasma and mouse IgG were used to block human and murine Fc-receptors. Isotype-matched control antibodies were used to exclude false positive cells. Staining was performed in 4° C. for 30 minutes. Engraftment of human cells was examined by staining with mouse anti-human CD45-Fitc, CD38-PE and CD34-APC (Becton Dickinson). Human leukocytes were gated according to their expression of the pan-leukocyte marker CD45, and amongst this population the percentage of CD34+/CD38−/low primitive cells was determined. In several experiments dopamine receptor expression on CD34+/CD38−/low was tested, cells were triple stained with mouse anti-human CD38-PE, CD34-APC and rabbit anti human dopamine receptor 3 or 5 (Calbiochem, Nottingham, UK) followed by secondary antibodies goat anti rabbit alexa 488 (Molecular Probes, Eugene, Oreg.). After staining, cells were washed in FACS buffer and analyzed by fluorescence-activated cell sorting (FACSCalibur and CellQuest software, Becton Dickinson). […]

[7] = tested on: beta-2 adrenergic receptor on CD34+ cells; assay: Flow cytometry of beta-2 adrenergic receptor on CD34+ cells; design: species or system human; conditions: in vivo G-CSF stimulated (mobilized) peripheral blood CD34+ cells
Excerpt: We carried out experiments in order to test whether CD34+ cells are regulated by additional catecholamines neurotransmitters.

[8] = tested on: dopamine receptors type 3 and 5 on the surface of CD34+ enriched cells; assay: Flow cytometry of dopamine receptor expression on CD34+ cells from BM of G-CSF treated or untreated donors; format: in vivo, human; conditions: CD34+ cells from BM of G-CSF treated healthy donors vs BM of untreated healthy donors
Excerpt: (i) Human cells and reagents. Human cord blood (CB), adult G-CSF mobilized peripheral blood (MPBL) and BM from normal or G-CSF treated donors mononuclear cells were obtained after informed consent in accordance with procedures approved by the human ethics committee of the Weizmann Institute of Science. The cell surface protein CD34 is frequently used as a marker for positive selection of human hematopoietic stem/progenitor cells in research and in transplantation. CD34^+ cell enrichment was performed using magnetic bead separation as previously described (Spiegel A et al Blood 2004; 2900-7). Cells were cultured in RPMI 1640 medium supplemented with 10% heat-inactivated FCS, antibiotics and glutamine.
Human CB cells were obtained from full-term deliveries after informed consent. Blood samples were diluted 1:1 in PBS. […]
(vi) Flow cytometry analysis. […] Human leukocytes were gated according to their expression of the pan-leukocyte marker CD45, and amongst this population the percentage of CD34+/CD38−/low primitive cells was determined. […] After staining, cells were washed in FACS buffer and analyzed by fluorescence-activated cell sorting (FACSCalibur and CellQuest software, Becton Dickinson).
Expression of dopamine receptors type 3 and 5 was evaluated on the surface of CD34^+ enriched cells that were obtained from different sources. […]

[9] = tested on: dopamine receptor 3 and 5 on human CD34+/CD38-/low cells; assay: Dopamine receptor expression on human cells from BM of G-CSF treated chimeric NOD/SCID mice; format: in vivo, human cells in NOD/SCID mice; conditions: 5 daily s.c. injections of G-CSF
Experimental: Mobilization in NOD/SCID mice engrafted with human cells was performed as follows: mice received a daily subcutaneous injection of G-CSF (Filgrastim, […] in […] 0.9% NaCl, 5% fetal calf serum (FCS), pH 4.55) for 5 consecutive days and were sacrificed 4 hrs after the last injection. Peripheral blood from mice asphyxied with dry ice was collected by cardiac aspiration in heparinized tubes. Number of WBC in the peripheral blood was determined.
as §1, with “Engraftment of human cells was examined by staining with mouse anti-human CD45-Fitc, CD38-PE and CD34-APC (Becton Dickinson).” left out, “In several experiments dopamine receptor expression on CD34+/CD38−/low was tested, cells were triple stained with mouse anti-human CD38-PE, CD34-APC and rabbit anti human dopamine receptor 3 or 5 (Calbiochem, Nottingham, UK) followed by secondary antibodies goat anti rabbit alexa 488 (Molecular Probes, Eugene, Oreg.).” left out

## Cl.Oc1cc2c(cc1O)C(c1ccccc1)CNCC2 (single isomer, unassigned; (+)) [SKF, (+)-1-phenyl-2,3,4,5-tetrahydro(1H)-3-benzazepine-7,8-diol hydrochloride]
Cord blood CD34+ cells [1]
  percent of cells that exhibited polarized morphology compared to control: more than doubled
Cord blood CD34+ cells [2]; CB CD34+ cells, Epo, SCF
  colony (CFU-C) formation in the presence of GM-CSF: augmented
Cord blood CD34+ cells [2]; CB CD34+ cells
  colony formation, culture not supplemented with myeloid cytokines: No increase
[3]
  spontaneous migration of murine bone marrow mononuclear cells: higher spontaneous migration
Human CD34+ cells [4]
  engraftment in the murine BM compared to control cells: 2 fold

## CCCN(CCC)C1CCc2ccc(O)cc2C1 (stereo not shown) [7-OH-DPAT, 7-hydroxy-2-dipropylaminotetralin]
Cord blood CD34+ cells [1]
  percent of cells that exhibited polarized morphology compared to control: more than doubled
Cord blood CD34+ cells [2]; CB CD34+ cells, Epo, SCF, IL-3 plus G-CSF 100 ng/ml, 7-OH-DPAT 100 nM
  colony formation in the presence of G-CSF: the largest increase
Cord blood CD34+ cells [2]; CB CD34+ cells, Epo, SCF
  colony (CFU-C) formation in the presence of GM-CSF: increased colony formation
Cord blood CD34+ cells [2]; CB CD34+ cells
  colony formation, culture not supplemented with myeloid cytokines: No increase
[3]
  spontaneous migration of murine bone marrow mononuclear cells: higher spontaneous migration
BM cells; 7-OH-DPAT 1.5 mg/kg
  increase in BM cellularity: 50%
Human CD34+ cells [4]
  engraftment in the murine BM compared to control cells: 2 fold

## CN1CCN(C2=Nc3cc(Cl)ccc3Nc3ccccc32)CC1 [clozapine]
Human CD34+ cells [4]; MPB CD34+ cells pretreated with antagonist prior to injection, 5 weeks
  decrease in engraftment: 50%

## NCCc1ccc(O)c(O)c1 [dopamine]
Human CD34+ cells [5]; cells pre-treated with GM-CSF, dopamine 10 nM (tested 1 nM-1 uM)
  migration of cord blood CD34+ enriched cells towards dopamine in the lower chamber: significantly increased
Human CD34+ cells [5]; no GM-CSF pre-treatment, data not shown
  migration of cord blood CD34+ cells towards dopamine, cells not pre-treated with GM-CSF: not detected

## CNC[C@H](O)c1ccc(O)c(O)c1 [epinephrine]
Cord blood CD34+ cells [2]
  clonogenic capacity of human cord blood CD34+ cells: increase the clonogenic capacity
Human CD34+ cells [4]
  engraftment of human CD34+ cells in NOD/SCID mice: enhance engraftment

## OCCN1CCN(CCC=C2c3ccccc3Sc3ccc(C(F)(F)F)cc32)CC1 [flupenthixol, 2-[4-[3-[2-(trifluoromethyl)thioxanthen-9-ylidene]propyl]piperazin-1-yl]ethanol]
BM cells; flupenthixol 3 mg/kg
  decrease in BM cellularity: 25%

## NC[C@H](O)c1ccc(O)c(O)c1 [norepinephrine]
Cord blood CD34+ cells [2]
  clonogenic capacity of human cord blood CD34+ cells: increase the clonogenic capacity
Human CD34+ cells [5]; CB (GM-CSF pretreated) or MPB CD34+ cells, 1 or 10 nM norepinephrine
  migration of CD34+ cells towards norepinephrine in the lower well: increased migration
Human CD34+ cells [4]
  engraftment of human CD34+ cells in NOD/SCID mice: enhance engraftment

## GM-CSF: myeloid cytokine, granulocyte/macrophage-colony stimulating factor
[6]
  levels of dopamine receptors 3 and 5 in CD34+/CD38-/low cells: up regulated

B1: G-CSF: myeloid cytokine, granulocyte colony-stimulating factor (Filgrastim, Roche) (protein, chains of the INN, looked up)
chain: MTPLGPASSLPQSFLLKCLEQVRKIQGDGAALQEKLCATYKLCHPEELVLLGHSLGIPWAPLSSCPSQALQLAGCLSQLHSGLFLYQGLLQALEGISPELGPTLDTLQLDVADFATTIWQQMEELGMAPALQPTQGAMPAFASAFQRRAGGVLVASHLQSFLEVSYRVLRHLAQP
[7]
  levels of β2-adrenergic receptor on CD34+ cells: higher levels
[8]
  expression of dopamine receptor on the surface of enriched CD34+ cells, higher than untreated donors: 2-4 folds
[9]
  level of dopamine receptor expression in the CD34+/CD38-/low cell population: increase
